Assay results: the NIST ThermoML archive (doi:10.1016/j.fluid.2013.05.022)
± gives the expanded uncertainty stated by the source.

Tests used:
[1] = refractive index (Na D-line) (dimensionless); conditions: 298.15 K; 859 kPa; Liquid; Standard Abbe refractometry
[2] = 298.15 K; 85.9 kPa; Liquid; Vibrating tube method

refractive index [1]: 1.4281 ± 0.0004
mass density [2]: 944.53 ± 1 kg/m3
SMILES: CN(C)C=O [dimethylformamide]
